From US11324774B2, “Compositions of oral alkaline salts and metabolic acid inducers and uses thereof” (Augusta University Research Institute, Inc., priority 2018, dated 2022)
Where two headings read alike, the source gives them in different places.

Key:
[1] = for Glucose / HCO3− / Hct / pCO2 / pH / pO2: arterial blood, 0.1M NaHCO3 in drinking water
Excerpt: Arterial blood gas measurements: Dahl SS rats were anesthetized (2-5% isoflurane) and the left femoral artery was catheterized. Surgically implanted catheters were then tunneled under the skin and exposed between the shoulder blades. Catheters were protected by a light wire spring attached to a swivel (Instech Laboratories Inc, Plymouth Meeting, Pa.), which allows free 360-degree movement of the animal. Rats were individually housed and allowed to recover for 1 week before beginning experimental measurements. Catheters were filled with heparinized saline (30 U/mL) and connected to an infusion pump (Phd2000, Harvard Apparatus, Holliston, Mass.). Infusions of heparinized saline were maintained at 100 μL/hr over the course of the protocol. 0.2 mL arterial blood samples were taken prior to placing rats on treated water, on day 3 of low salt feeding and on day 7 of high salt feeding by disconnecting the catheter from the infusion pump proximal to emergence of the catheter from the rat and drawing arterial blood into a heparinized 1 mL syringe. Arterial blood gas measurements were performed on a Rapidpoint 4055 Blood gas analyzer (Seimens AG, Munich Germany) within 20 minutes of taking the sample. Arterial blood gas measurements on day 14 of HS feeding were taken at the time of sacrifice by left ventricular puncture in anesthetized (2-5% isoflurane) rats.
Rat protocols: Dahl SS rats: All rats were maintained on low salt chow with ad libitum water (tap water). […] Following four days of low salt (LS) feeding, rats were placed on an 8% HS diet (AIN76A 8%; Dyets) for two weeks. 24 hour urine collections were obtained on day 3 of low salt and day 7 and day 14 of high salt feeding if applicable. Following 14 days of HS feeding, rats were anesthetized with isoflurane (2-5%) and tissue harvested for analysis.
Blood gas/electrolytes: In a parallel study, rats were implanted with a femoral arterial catheter to allow arterial blood sampling.

[2] = tested on: T-regulatory cells (FOXP3+ T-regs), TH17 cells; test: Circulating T-regulatory and TH17 cells in rats; assay type: in vivo
[3] = tested on: IL-6
Experimental: (§1) IL-6 and TNF-α were determined in plasma samples using the microfluidic simple plex cartridge system following manufacturer specifications. Briefly, Simple Plex uses 25 μL of serum for measurement of the […] cytokines. The work flow of the Simple Plex assays is: (a) a test cartridge is primed with samples with each sample split into channels (i.e., TNF-α and IL-6 to react with their respective antibodies immobilized on glass nanoreactors; (b) after sample incubation, circuits in the cartridge are cleaned with wash buffer, and biotinylated detection antibody solutions are individually pumped into their respective channels to bind to protein analyte captured on the GNRs; (c) after incubation, unbound detection antibodies are washed away and a detection solution (i.e., streptavidin DyLight 650) is flowed into all channels to conjugate with the biotinylated detection antibodies; (d) the detection solution is washed away; detection fluorophores (i.e., DyLight 650) are excited with a 631 nm laser; and the fluorescence signals are read with a charge-coupled device (CCD) camera. The signals are used for quantification based on master calibrator curves provided by the manufacturer.

[4] = tested on: TNF-α
Experimental: as §1

[5] = tested on: TNF-α expressing splenic cells; conditions: spleens of rats, given orally in drinking solution
Experimental: To identify and evaluate immune cells in splenic tissues, a flow cytometry-based assay was employed. Buffering capacity and pH were determined by titration of the solutions with HCl.
To identify and evaluate immune cells in splenic tissues, a flow cytometry-based assay was used.

[6] = tested on: blood leukocytes (M1, M2 macrophages, TNFα+ neutrophils); conditions: single 2 g dose
Experimental: Blood was taken at all time points for all control subjects. No data was excluded from the analysis. Flow cytometric analysis of heparinized whole blood was performed as described previously. Briefly, cells were incubated with antibodies for surface markers (15 minutes on ice in dark) before incubation with antibodies against intracellular cytokines and factors (after permeabilization for 15 minutes using fix/Perm cocktail, eBioscience, San Diego USA) including, CD11b, CD68, TNFα (for M1 macrophages), CD11b, CD68, CD206 and IL-10 (for M2 macrophages) (purchased from BD BioSciences) and CD16 and TNFα (for neutrophils, from eBioscience, USA). Cells were then washed and run through a four-color flow cytometer (FACS Calibur, BD Biosciences), and data were collected using CellQuest software. Samples were double-stained with control IgG and cell markers to assess any spillover signal of fluorochromes. Proper compensation was set to ensure the median fluorescence intensities of negative and positive cells were identical and then was used to gate the population. Gating excluded dead cells and debris using forward and side scatter plots.

[7] = Experimental: Serum Electrolytes: Blood samples were collected via an intravenous catheter (Nexiva™ Becton Dickinson, Franklin Lakes, N.J.) at baseline and at 60 minute intervals post-treatment to examine changes in serum electrolyte balance (Na, K, and Cl^−).
[8] = healthy rats, 3 days of drinking, 0.1M

## O=C([O-])O.[Na+] [NaHCO3, sodium bicarbonate]
[1]; across the course of the study, versus vehicle
  markers of plasma acid base status (pH, pCO2, HCO3−): no significant difference
[1]; Day 3 LS
  Glucose: 195 ± 25 mg/dL
  HCO3−: 25.2 ± 0.7 mM
  Hct: 40 ± 0%
  pCO2: 38.3 ± 1.1
  pH: 7.43 ± 0.01
  pO2: 93.5 ± 2.4
[1]; Day 7 HS
  Glucose: 160 ± 16 mg/dL
  HCO3−: 26.9 ± 0.6 mM
  Hct: 39 ± 2%
  pCO2: 39.4 ± 3.2
  pH: 7.46 ± 0.02
  pO2: 113 ± 16
[1]; Day 14 HS
  Glucose: 235.4 ± 35 mg/dL
  HCO3−: 26.1 ± 1.0 mM
  Hct: 41 ± 2%
  pCO2: 37.4 ± 4.9
  pH: 7.46 ± 0.03
  pO2: 88.7 ± 8.5
[2]; [8]
  anti-inflammatory T-regulatory cells: robust but identical increases
  pro-inflammatory TH17 cells: decreases
[2]; rats, 4 days in drinking water
  circulating anti-inflammatory T cells (FOXP3+ T-regs): significantly increased
[3]; ingestion for 2 weeks
  IL-6: reduces
[3]; single dose, 60 minutes
  IL-6: reduces
[4]; ingestion for 2 weeks
  TNF-α: reduces
[4]; single dose, 60 minutes
  TNF-α: reduces
[5]
  number of TNF-α (inflammatory) expressing cells: significantly reduced
[6]; 1-3 hours, compared to NaCl, p=0.0004
  M1 macrophages in blood: reduced to a significantly greater degree
[6]; 1-3 hours, compared to NaCl, p=0.0146
  TNFα positive neutrophils in blood: reduced to a significantly greater degree
[6]; change from baseline compared to NaCl, p=0.00165
  percentage of blood leukocytes identified as M2 macrophages: increased
[7]; after single 2 g dose
  serum potassium: decreased
[7]; serum, Post-treatment, single 2 g dose in 250 ml water
  Na: 140.8 ± 0.5 mmol/L
